Experimental data taken from article PMC7570620, “Synthesis and Evaluation of the Antitumor Activity of Novel 1-(4-Substituted phenyl)-2-ethyl Imidazole Apoptosis Inducers In Vitro” (Molecules, 2020).

What was measured:
SGC-7901 = experiment: MTT cell viability assay, SGC-7901; assay type: cell-based; details: Homo sapiens, 24 h incubation, mean ± SD, n = 4
Method: (§1) The synthesized compounds were subjected to a cytotoxicity assay using the MTT method, as described previously. IC50 is defined as the drug concentration causing a 50% reduction in cell numbers compared to the untreated control. For screening, we evaluated the effects of the compounds on the growth of three cancer cell lines (A549, SGC-7901, and HeLa). In addition, their toxicities were tested using one normal cell line (L-02). The results are the averages of four separate measurements. MTX and 5-FU served as positive controls.
(§2) The three cancer cell lines namely the human lung cancer cell line (A549), human cervical cancer cell line (HeLa), human gastric carcinoma cell line (SGC-7901), and normal liver cell line (L-02) were acquired from the American Type Culture Collection (Manassas, VA, USA). A549 and SGC-7901 cells were routinely cultured in RPMI-1640. In addition, HeLa and L-02 cells were routinely cultured in DMEM. Media was supplemented with 10% fetal bovine serum (FBS). Cells were maintained at subconfluency at 37 °C in humidified air containing 5% CO2. The cells were monitored daily and maintained at 80% cell density. All compounds tested were dissolved in DMSO and then diluted by the culture medium before the treatment of cultured cells.
(§3) Cytotoxicity of the tested samples was measured against each cell line using the 3-(4,5-dimethylthiazol-2-yl)-2,5-diphenyltetrazolium bromide (MTT) cell viability assay (Maher et al., 2019). Cancer cells (A549, SGC-7901, and HeLa) and L-02 normal cells were harvested during the logarithmic growth phase. All cells were seeded in 96-well plates at 10^4 cells/well and were treated with 5-fluorouracil (5-FU), methotrexate (MTX), and the tested samples for 24 h at final concentrations of […]. Next, 20 µL of freshly prepared MTT (Solarbio) solution (5 mg/mL of MTT in PBS) was added to each well, and the cells were cultured for 4 h at 37 °C. The supernatants were removed and resolved with 100 µL of DMSO, and the cells were shocked for 10 min at 37 °C. The optical density of the samples was measured at 490 nm using a microplate luminometer. Cell viability was expressed as the percentage change in absorbance compared to the control values.

HeLa = experiment: MTT cell viability assay, HeLa; assay type: cell-based; details: Homo sapiens, 24 h incubation, mean ± SD, n = 4
Method: as §1, §2, §3

A549 = experiment: MTT cell viability assay, A549; assay type: cell-based; details: Homo sapiens, 24 h incubation, mean ± SD, n = 4
Method: as §1, §2, §3

L-02 = experiment: MTT cytotoxicity in normal cell line L-02; assay type: cell-based; details: for IC50: Homo sapiens, L02, normal cell line L-02, MTT; for Selectivity Index SGC-7901: IC50 in normal cells (L-02)/IC50 in tumor cells (SGC-7901); for Selectivity Index A549: IC50 in normal cells (L-02)/IC50 in tumor cells (A549); for Selectivity Index HeLa: IC50 in normal cells (L-02)/IC50 in tumor cells (HeLa)
Method: as §1
The lack of selectivity between normal and cancer cells is one of the primary limitations of antitumor drugs. We evaluated the cytotoxicity of compounds 4c, 4e–4i, 4l, 4m, and 4q in the normal cell line L-02 to determine the selectivity index (defined as the ratio of cytotoxicity in L-02 cells compared to that in cancer cells). […] Compound 4q yielded satisfactory SI values in HeLa and SGC-7901 cells but an unsatisfactory SI value in A549 cells. […] Compound 4f was selected for the subsequent biological studies.
as §2, §3

Compound	melting point [°C]	IC50 (SGC-7901) [µM]	IC50 (HeLa) [µM]	IC50 (A549) [µM]	IC50 (L-02) [µM]	Selectivity Index SGC-7901 (L-02)	Selectivity Index A549 (L-02)	Selectivity Index HeLa (L-02)
CCc1nccn1-c1ccc(NC(=O)CCC(=O)O)cc1 [Compound 3, 3-(4-(2-Ethyl-1H-imidazol-1-yl)phenylcarbamoyl)propanoic Acid]	163 to 165	> 100	> 100	> 100				
CCc1nccn1-c1ccc(NC(=O)CCC(=O)NCc2ccccn2)cc1 [Compound 4r, 1-(4-(3-(Pyridinemethylcarbamoyl)propionamide)phenyl)-2-ethyl Imidazole]	118 to 121	41.9 ± 3.47	> 100	> 100				
CCCNC(=O)CCC(=O)Nc1ccc(-n2ccnc2CC)cc1 [Compound 4a, 1-(4-(3-(Propylcarbamoyl)propionamide)phenyl)-2-ethyl Imidazole]	128 to 130	> 100	> 100	> 100				
CCc1nccn1-c1ccc(NC(=O)CCC(=O)NCc2ccccc2Cl)cc1 [Compound 4q]	116 to 120	2.96 ± 0.29	4.91 ± 0.71	31.1 ± 3.81	> 500	>168.92		
CCc1nccn1-c1ccc(NC(=O)CCC(=O)NCc2ccc(C)cc2)cc1 [Compound 4o, 1-(4-(3-(4-Methylbenzylcarbamoyl)propionamide)phenyl)-2-ethylimidazole]	164 to 166	11.6 ± 1.59	12.5 ± 0.91	71.3 ± 9.13				
CCCCNC(=O)CCC(=O)Nc1ccc(-n2ccnc2CC)cc1 [Compound 4b, 1-(4-(3-(Butylcarbamoyl)propionamide)phenyl)-2-ethyl Imidazol]	112 to 115	52.5 ± 3.36	> 100	> 100				
CCc1nccn1-c1ccc(NC(=O)CCC(=O)Nc2ccc(OC)cc2)cc1 [Compound 4i, 1-(4-(3-(4-Methoxybenzecarbamoyl)propionamide)phenyl)-2-ethyl Imidazole]	160 to 163	15.5 ± 2.84	7.01 ± 1.3	23.8 ± 7.16	210 ± 25.5	13.55	8.81	29.89
CCc1nccn1-c1ccc(NC(=O)CCC(=O)Nc2ccc(Cl)cc2)cc1 [Compound 4e, 1-(4-(3-(4-Cl-Phenylcarbamoyl)propionamide)phenyl)-2-ethyl Imidazol]	184 to 188	10.6 ± 1.75	13.3 ± 1.37	43.4 ± 5.42	313 ± 18	29.48	7.22	23.58
CN(Cc1cnc2nc(N)nc(N)c2n1)c1ccc(C(=O)N[C@@H](CCC(=O)O)C(=O)O)cc1 [MTX, methotrexate, reference compound]		13.7 ± 1.29	15 ± 2.47	16 ± 3.2	42.9 ± 8.07	3.14	2.68	2.85
CCc1nccn1-c1ccc(NC(=O)CCC(=O)Nc2nccs2)cc1 [Compound 4s, 1-(4-(3-(Thiazolcarbamoyl)propionamide)phenyl)-2-ethyl Imidazole]	168 to 170	56.3 ± 3.24	14.8 ± 2.05	24 ± 3.47				
CCCCCNC(=O)CCC(=O)Nc1ccc(-n2ccnc2CC)cc1 [Compound 4c, 1-(4-(3-(Amylcarbamoyl)propionamide)phenyl)-2-ethyl Imidazole]	95 to 98	18.5 ± 2.12	28.5 ± 2.51	33.9 ± 2.43	114 ± 8.35	6.13	3.35	3.99
CCc1nccn1-c1ccc(NC(=O)CCC(=O)Nc2ccc(F)cc2)cc1 [Compound 4g, 1-(4-(3-(4-F-Phenylcarbamoyl)propionamide)phenyl)-2-ethyl Imidazol]	75 to 78	14 ± 2.29	16.5 ± 1.48	13.8 ± 1.92	42.6 ± 6.37	3.04	3.10	2.58
CCc1nccn1-c1ccc(NC(=O)CCC(=O)Nc2ccc(N)cc2)cc1 [Compound 4j, 1-(4-(3-(4-amino-Phenylcarbamoyl)propionamide)phenyl)-2-ethylimidazole]	229 to 231	> 100	7.42 ± 0.67	> 100				
CCc1nccn1-c1ccc(NC(=O)CCC(=O)NCc2ccc(F)cc2)cc1 [Compound 4n, 1-(4-(3-(4-F-Benzylcarbamoyl)propionamide)phenyl)-2-ethylimidazole]	137 to 140	> 100	9.36 ± 1.78	> 100				
CCc1nccn1-c1ccc(NC(=O)CCC(=O)NCc2ccc(Cl)cc2)cc1 [Compound 4l, 1-(4-(3-(4-Cl-Benzylcarbamoyl)propionamide)phenyl)-2-ethyl Imidazol]	138 to 142	8.39 ± 1.11	7.04 ± 1.07	11 ± 1.31	114 ± 16.7	13.53	10.36	16.13
CCc1nccn1-c1ccc(NC(=O)CCC(=O)NCc2ccc(OC)cc2)cc1 [Compound 4p, 1-(4-(3-(4-Methoxybenzylcarbamoyl)propanamide)phenyl)-2-ethylimidazole]	168 to 171	40.3 ± 4.67	25.5 ± 4.94	75.9 ± 4				
CCc1nccn1-c1ccc(NC(=O)CCC(=O)NCc2ccc(Br)cc2)cc1 [Compound 4m, 1-(4-(3-(4-Br-Benzylcarbamoyl)propionamide)phenyl)-2-ethylimidazole]	143 to 145	15.2 ± 1.74	4.07 ± 0.59	28.6 ± 2.51	210 ± 20.3	13.85	7.35	51.59
CCc1nccn1-c1ccc(NC(=O)CCC(=O)NCc2ccccc2)cc1 [Compound 4k, 1-(4-(3-(Benzylcarbamoyl)propionamide)phenyl)-2-ethyl Imidazol]	123 to 126	20.6 ± 2	15.2 ± 1.4	> 100				
CCc1nccn1-c1ccc(NC(=O)CCC(=O)Nc2ccccc2)cc1 [Compound 4d, 1-(4-(3-(Phenylcarbamoyl)propionamide)phenyl)-2-ethylimidazole]	170 to 173	> 100	> 100	86.5 ± 10.6				
